# Measurements as given in paper PMC10482267, “Safety, tolerability, pharmacokinetics, and pharmacodynamics of single and multiple doses of aficamten in healthy Chinese participants: a randomized, double-blind, placebo-controlled, phase 1 study” (Frontiers in Pharmacology, 2023).
# Like-named read-outs stand apart in the source and are kept apart here.
# Tested on: healthy Chinese participants
# Assay type: in vivo, human
# Description: Of note, the study was not designed to identify a maximum tolerated dose. Dose escalation was to stop if a non-tolerated dose was identified. PD endpoints, including left ventricular ejection fraction (LVEF), would be measured with echocardiograms, which were reviewed by an independent cardiologist for safety assessments. The study drug would be discontinued for participants who develop left ventricular dysfunction according to pre-specified stopping rules. For additional safety monitoring, an independent, unblinded cardiologist was present at the clinical research unit from dosing through the completion of the echocardiogram on the last dosing day.
# Echocardiography assessments (left ventricular fractional shortening [LVFS], left ventricular stroke volume [LVSV], left ventricular outflow tract velocity time integral [LVOT-VTI], left ventricular end-systolic volume [LVESV], left ventricular end-diastolic volume [LVEDV], left ventricular cardiac output [LVCO], and LVEF) for the SAD cohorts were collected on day 1 (baseline) and at 1.5, 4, and 24 h post-dose on day 1. For the MD cohort, the assessments were collected on day 1 (baseline) at 1.5 and 4 h post-dose on day 1, at 1.5 h post-dose on days 2, 4, and 9, and at 3 and 24 h post-dose on day 14.
# Of all the echocardiography parameters, the key parameters LVEF and LVFS were classified as follows with the number of participants summarized for each dosing condition: for the LVEF category, baseline LVEF ≥60%, and post-dose LVEF <50% or <45%; change of LVEF from baseline ≤ 5%, ≤10%, or ˂15%; for the VLFS category, change of LVFS from baseline ≤ 5%, ≤10%, or ˂15%. The dose–PD response relationship between the aficamten dose and placebo group was assessed using ANOVA analysis. […] Furthermore, the relationship between PK concentration–PD response was also assessed using ANCOVA analysis of post-dose PD parameters based on changes from baseline. The model included changes from baseline in PD parameters as the dependent variables, concentration tertiles (categorical variables) as fixed effects, baseline PD parameters as covariates, and the random intercept to account for repeated measures. In addition, the heart rate (HR), systolic blood pressure (SBP), and diastolic blood pressure (DBP) were collected as a part of the vital sign assessments at pre-dose and post-dose.
# [1] = MD 5 mg N=9, 25.5 h (1.5 hours post-dose on Day 2)
# [2] = MD 5 mg N=9, 73.5 h (1.5 hours post-dose on Day 4)
# [3] = MD 5 mg N=9, 193.5 h (1.5 hours post-dose on Day 9)
# [4] = MD 5 mg N=9, 315 h (3 hours post-dose on Day 14)
# [5] = MD 5 mg N=9, 336 h (24 hours post-dose on Day 14)
compound,measurement,setting,value
CCc1nc(-c2ccc3c(c2)CC[C@H]3NC(=O)c2cnn(C)c2)no1 [aficamten],"LVEF Change From Baseline ≤ -5, participants","MD 5 mg N=9, 1.5 h",1 (11.11%) n (%)
same,"LVEF Change From Baseline ≤ -10, participants","MD 5 mg N=9, 1.5 h",0 (0%) n (%)
same,"LVEF Change From Baseline ≤ -15, participants","MD 5 mg N=9, 1.5 h",0 (0%) n (%)
same,"LVFS Change from Baseline ≤ -5, participants","MD 5 mg N=9, 1.5 h",3 (33.33%) n (%)
same,"LVFS Change from Baseline ≤ -10, participants","MD 5 mg N=9, 1.5 h",1 (11.11%) n (%)
same,"LVFS Change from Baseline ≤ -15, participants","MD 5 mg N=9, 1.5 h",0 (0%) n (%)
same,"LVEF Change From Baseline ≤ -5, participants",[1],4 (44.44%) n (%)
same,"LVEF Change From Baseline ≤ -10, participants",[1],0 (0%) n (%)
same,"LVEF Change From Baseline ≤ -15, participants",[1],0 (0%) n (%)
same,"LVFS Change from Baseline ≤ -5, participants",[1],4 (44.44%) n (%)
same,"LVFS Change from Baseline ≤ -10, participants",[1],0 (0%) n (%)
same,"LVFS Change from Baseline ≤ -15, participants",[1],0 (0%) n (%)
same,"LVEF Change From Baseline ≤ -5, participants",[2],3 (33.33%) n (%)
same,"LVEF Change From Baseline ≤ -10, participants",[2],0 (0%) n (%)
same,"LVEF Change From Baseline ≤ -15, participants",[2],0 (0%) n (%)
same,"LVFS Change from Baseline ≤ -5, participants",[2],5 (55.56%) n (%)
same,"LVFS Change from Baseline ≤ -10, participants",[2],1 (11.11%) n (%)
same,"LVFS Change from Baseline ≤ -15, participants",[2],0 (0%) n (%)
same,"LVEF Change From Baseline ≤ -5, participants",[3],1 (11.11%) n (%)
same,"LVEF Change From Baseline ≤ -10, participants",[3],0 (0%) n (%)
same,"LVEF Change From Baseline ≤ -15, participants",[3],0 (0%) n (%)
same,"LVFS Change from Baseline ≤ -5, participants",[3],4 (44.44%) n (%)
same,"LVFS Change from Baseline ≤ -10, participants",[3],0 (0%) n (%)
same,"LVFS Change from Baseline ≤ -15, participants",[3],0 (0%) n (%)
same,"LVEF Change From Baseline ≤ -5, participants",[4],2 (22.22%) n (%)
same,"LVEF Change From Baseline ≤ -10, participants",[4],0 (0%) n (%)
same,"LVEF Change From Baseline ≤ -15, participants",[4],0 (0%) n (%)
same,"LVFS Change from Baseline ≤ -5, participants",[4],1 (11.11%) n (%)
same,"LVFS Change from Baseline ≤ -10, participants",[4],0 (0%) n (%)
same,"LVFS Change from Baseline ≤ -15, participants",[4],0 (0%) n (%)
same,"LVEF Change From Baseline ≤ -5, participants",[5],2 (22.22%) n (%)
same,"LVEF Change From Baseline ≤ -10, participants",[5],0 (0%) n (%)
same,"LVEF Change From Baseline ≤ -15, participants",[5],0 (0%) n (%)
same,"LVFS Change from Baseline ≤ -5, participants",[5],1 (11.11%) n (%)
same,"LVFS Change from Baseline ≤ -10, participants",[5],0 (0%) n (%)
same,"LVFS Change from Baseline ≤ -15, participants",[5],0 (0%) n (%)
same,exposure–response analysis of change from baseline in echocardiogram parameters vs time-matched plasma concentrations,MD 5 mg cohort,did not show a statistically significant effect
same,"LVEF Change From Baseline ≤ -5, participants","SAD 10 mg N=6, 1.5 h",1 (16.67%) n (%)
same,"LVEF Change From Baseline ≤ -10, participants","SAD 10 mg N=6, 1.5 h",0 (0%) n (%)
same,"LVEF Change From Baseline ≤ -15, participants","SAD 10 mg N=6, 1.5 h",0 (0%) n (%)
same,"LVFS Change from Baseline ≤ -5, participants","SAD 10 mg N=6, 1.5 h",1 (16.67%) n (%)
same,"LVFS Change from Baseline ≤ -10, participants","SAD 10 mg N=6, 1.5 h",0 (0%) n (%)
same,"LVFS Change from Baseline ≤ -15, participants","SAD 10 mg N=6, 1.5 h",0 (0%) n (%)
same,"LVEF Change From Baseline ≤ -5, participants","SAD 10 mg N=6, 4 h",1 (16.67%) n (%)
same,"LVEF Change From Baseline ≤ -10, participants","SAD 10 mg N=6, 4 h",0 (0%) n (%)
same,"LVEF Change From Baseline ≤ -15, participants","SAD 10 mg N=6, 4 h",0 (0%) n (%)
same,"LVFS Change from Baseline ≤ -5, participants","SAD 10 mg N=6, 4 h",0 (0%) n (%)
same,"LVFS Change from Baseline ≤ -10, participants","SAD 10 mg N=6, 4 h",0 (0%) n (%)
same,"LVFS Change from Baseline ≤ -15, participants","SAD 10 mg N=6, 4 h",0 (0%) n (%)
same,"LVEF Change From Baseline ≤ -5, participants","SAD 10 mg N=6, 24 h",0 (0%) n (%)
same,"LVEF Change From Baseline ≤ -10, participants","SAD 10 mg N=6, 24 h",0 (0%) n (%)
same,"LVEF Change From Baseline ≤ -15, participants","SAD 10 mg N=6, 24 h",0 (0%) n (%)
same,"LVFS Change from Baseline ≤ -5, participants","SAD 10 mg N=6, 24 h",1 (16.67%) n (%)
same,"LVFS Change from Baseline ≤ -10, participants","SAD 10 mg N=6, 24 h",0 (0%) n (%)
same,"LVFS Change from Baseline ≤ -15, participants","SAD 10 mg N=6, 24 h",0 (0%) n (%)
same,number of subjects with LVEF reduction of 5%–10%,"SAD 10 mg-dose group, 1.5 h post-dose",one
same,"LVEF Change From Baseline ≤ -5, participants","SAD 20 mg N=6, 1.5 h",3 (50%) n (%)
same,"LVEF Change From Baseline ≤ -10, participants","SAD 20 mg N=6, 1.5 h",1 (16.67%) n (%)
same,"LVEF Change From Baseline ≤ -15, participants","SAD 20 mg N=6, 1.5 h",0 (0%) n (%)
same,"LVFS Change from Baseline ≤ -5, participants","SAD 20 mg N=6, 1.5 h",3 (50%) n (%)
same,"LVFS Change from Baseline ≤ -10, participants","SAD 20 mg N=6, 1.5 h",1 (16.67%) n (%)
same,"LVFS Change from Baseline ≤ -15, participants","SAD 20 mg N=6, 1.5 h",0 (0%) n (%)
same,"LVEF Change From Baseline ≤ -5, participants","SAD 20 mg N=6, 4 h",2 (33.33%) n (%)
same,"LVEF Change From Baseline ≤ -10, participants","SAD 20 mg N=6, 4 h",0 (0%) n (%)
same,"LVEF Change From Baseline ≤ -15, participants","SAD 20 mg N=6, 4 h",0 (0%) n (%)
same,"LVFS Change from Baseline ≤ -5, participants","SAD 20 mg N=6, 4 h",1 (16.67%) n (%)
same,"LVFS Change from Baseline ≤ -10, participants","SAD 20 mg N=6, 4 h",0 (0%) n (%)
same,"LVFS Change from Baseline ≤ -15, participants","SAD 20 mg N=6, 4 h",0 (0%) n (%)
same,"LVEF Change From Baseline ≤ -5, participants","SAD 20 mg N=6, 24 h",1 (16.67%) n (%)
same,"LVEF Change From Baseline ≤ -10, participants","SAD 20 mg N=6, 24 h",0 (0%) n (%)
same,"LVEF Change From Baseline ≤ -15, participants","SAD 20 mg N=6, 24 h",0 (0%) n (%)
same,"LVFS Change from Baseline ≤ -5, participants","SAD 20 mg N=6, 24 h",2 (33.33%) n (%)
same,"LVFS Change from Baseline ≤ -10, participants","SAD 20 mg N=6, 24 h",0 (0%) n (%)
same,"LVFS Change from Baseline ≤ -15, participants","SAD 20 mg N=6, 24 h",0 (0%) n (%)
same,number of subjects with LVEF reduction of 10%–15%,"SAD 20 mg group, 1.5 h post-dose",one
same,number of participants with LVEF reduction of 5%–10%,"SAD 20 mg-dose group, 1.5 h post-dose",three
same,LVFS change from baseline vs placebo group by PK concentration group,"SAD cohorts, group 2: 37.6–56.3 ng/mL, p < 0.05",statistically significant changes from baseline
same,LVEF change from baseline vs placebo group by PK concentration group,"SAD cohorts, group 3: 62.5–199.0 ng/mL, p < 0.05",statistically significant changes from baseline
same,PK–PD relationship between plasma concentration and LVEF and LVFS,"SAD cohorts, p < 0.05",significant inverse PK–PD relationships
same,"PD parameter changes from baseline, dose group vs placebo group","any dose group, ANOVA",no statistically significant difference
